Measured values published in patent US20230085307A1, “PYRIDAZINONE COMPOUND AND HERBICIDE” (NISSAN CHEMICAL CORPORATION, priority 2019, published 2023).

How the values were obtained:
redroot pigweed = assay: Test Example 4: herbicidal effect by soil treatment (Table 19, symbol N); assay type: in vivo, redroot pigweed (Amaranthus retroflexus); settings: amount of applied herbicide 320 g/ha
Outline: (§1)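 Three weeks of greenhouse growth at 25° C. to 30° C. followed a uniform surface spray of water-diluted emulsion at a predetermined herbicide amount. Seeds had been sown beforehand under about 1.5 cm of sterilized diluvial soil. Grading followed criteria set out in an earlier test.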

wild oat = assay: Test Example 5: herbicidal effect by foliage application, plastic box (Table 20, symbol I); assay type: in vivo, wild oat (Avena fatua); settings: foliage application, evaluated three weeks after application; for herbicidal effect on I: wild oat (criteria 0-5): 320 g/ha
Outline: (§2)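 Plants sown in sterilized diluvial soil and grown 14 days in a greenhouse at 25° C to 30° C, then sprayed on the foliage with the compound's emulsion diluted in water to a predetermined herbicide amount. Injury to weeds and crops scored three weeks after application on a visual rating scale.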

blackgrass = assay: Test Example 5: herbicidal effect by foliage application, plastic box (Table 20, symbol J); assay type: in vivo, blackgrass (Alopecurus myosuroides); settings: foliage application, evaluated three weeks after application; for herbicidal effect on J: blackgrass (criteria 0-5): 320 g/ha
Outline: as §2

persian speedwell [1] = assay: Test Example 4: herbicidal effect by soil treatment (Table 19, symbol R); assay type: in vivo, Persian speedwell (Veronica persica); settings: amount of applied herbicide 320 g/ha
Outline: as §1

Japanese bulrush = assay: Test Example 2: herbicidal activity, application during weed generation under submerged conditions (Table 17, symbol B); assay type: in vivo, Japanese bulrush (Schoenoplectus juncoides); settings: AAH 320 g/ha; application during weed generation, submerged conditions
Outline: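 Wagner pot, alluvial soil, 4 cm flood; mixed sowing of all species; greenhouse 25° C.–30° C. Emulsifiable formulation, water-diluted to predetermined dose, applied to paddy water at 1–2 leaf stage. Effect rated at 3 wk using the earlier test's scoring criteria.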

southern crabgrass = assay: Test Example 5: herbicidal effect by foliage application, plastic box (Table 20, symbol F); assay type: in vivo, southern crabgrass (Digitaria ciliaris); settings: foliage application, evaluated three weeks after application; for herbicidal effect on F: southern crabgrass (criteria 0-5): 320 g/ha
Outline: as §2

chickweed = assay: Test Example 4: herbicidal effect by soil treatment (Table 19, symbol P); assay type: in vivo, common chickweed (Stellaria media); settings: amount of applied herbicide 320 g/ha
Outline: as §1

velvetleaf = assay: Test Example 4: herbicidal effect by soil treatment (Table 19, symbol M); assay type: in vivo, velvetleaf (Abutilon theophrasti); settings: amount of applied herbicide 320 g/ha
Outline: as §1

rice flat sedge = assay: Test Example 3: herbicidal effect by foliage application, Wagner pot (Table 18, symbol E); assay type: in vivo, rice flat sedge (Cyperus iria); settings: amount of applied herbicide 320 g/ha
Outline: (§3)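 Plants were sown in alluvial soil held under 0.1–0.5 cm standing water and grown 14 days in a greenhouse at 25–30 °C. An emulsifiable formulation, water-diluted to the set dose, was then sprayed onto the foliage, and effects were scored three weeks later using previously defined criteria.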

late watergrass = assay: Test Example 1: herbicidal activity, application before weed generation under submerged conditions (Table 16, symbol A); assay type: in vivo, late watergrass (Echinochloa oryzicola); settings: 320 g/ha applied herbicide
Outline: (§4)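 Alluvial soil was flooded to 4 cm depth, weed seeds were sown mixed and 2.5-leaf rice seedlings were transplanted. On sowing day, the compound's emulsion, diluted in water to a set dose, was applied to the water surface. Plants grew at 25–30 °C and were scored 0–5 after three weeks.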

green foxtail = assay: Test Example 4: herbicidal effect by soil treatment (Table 19, symbol G); assay type: in vivo, green foxtail (Setaria viridis); settings: amount of applied herbicide 320 g/ha
Outline: as §1

barnyard grass [2] = assay: Test Example 3: herbicidal effect by foliage application, Wagner pot (Table 18, symbol H); assay type: in vivo, barnyard grass (Echinochloa crus-galli); settings: amount of applied herbicide 320 g/ha
Outline: as §3

barnyard grass [3] = assay: Test Example 5: herbicidal effect by foliage application, plastic box (Table 20, symbol H); assay type: in vivo, barnyard grass (Echinochloa crus-galli); settings: foliage application, evaluated three weeks after application; for herbicidal effect on H: barnyard grass (criteria 0-5): 320 g/ha
Outline: as §2

persian speedwell [4] = assay: Test Example 5: herbicidal effect by foliage application, plastic box (Table 20, symbol R); assay type: in vivo, Persian speedwell (Veronica persica); settings: foliage application, evaluated three weeks after application; for herbicidal effect on R: persian speedwell (criteria 0-5): 320 g/ha
Outline: as §2

barnyard grass [5] = assay: Test Example 4: herbicidal effect by soil treatment (Table 19, symbol H); assay type: in vivo, barnyard grass (Echinochloa crus-galli); settings: amount of applied herbicide 320 g/ha
Outline: as §1

oval-leafed pondweed = assay: Test Example 1: herbicidal activity, application before weed generation under submerged conditions (Table 16, symbol C); assay type: in vivo, oval-leafed pondweed (Monochoria vaginalis); settings: 320 g/ha applied herbicide
Outline: as §4

Cc1nn(C)c(=O)c(-c2c(-c3cccc(OC(C)(C)C)c3)sc3ccc(F)cc23)c1O [2-223]
herbicidal effect on N: redroot pigweed (redroot pigweed): 3 (Herbicidal rate of 40% or more and less than 70%)
herbicidal effect on I: wild oat (criteria 0-5) (wild oat): 1 (Herbicidal rate of 5% or more and less than 20%)
herbicidal effect on J: blackgrass (criteria 0-5) (blackgrass): 0 (Herbicidal rate of 5% or less (almost no effect))
herbicidal effect on R: persian speedwell (persian speedwell [1]): 4 (Herbicidal rate of 70% or more and less than 90%)
herbicidal effect rating, B: Japanese bulrush (Japanese bulrush): 2 (Herbicidal rate of 20% or more and less than 40%)
herbicidal effect on F: southern crabgrass (criteria 0-5) (southern crabgrass): 3 (Herbicidal rate of 40% or more and less than 70%)
herbicidal effect on P: chickweed (chickweed): 4 (Herbicidal rate of 70% or more and less than 90%)
herbicidal effect on M: velvetleaf (velvetleaf): 1 (Herbicidal rate of 5% or more and less than 20%)
herbicidal effect on E: rice flat sedge (rice flat sedge): 4 (Herbicidal rate of 70% or more and less than 90%)
Herbicidal effect on A: late watergrass (grade 0-5) (late watergrass): 4 (Herbicidal rate of 70% or more and less than 90%)
herbicidal effect on G: green foxtail (green foxtail): 3 (Herbicidal rate of 40% or more and less than 70%)
herbicidal effect on H: barnyard grass (barnyard grass [2]): 5 (Herbicidal rate of 90% or more (almost completely withered))
herbicidal effect on H: barnyard grass (criteria 0-5) (barnyard grass [3]): 4 (Herbicidal rate of 70% or more and less than 90%)
herbicidal effect on R: persian speedwell (criteria 0-5) (persian speedwell [4]): 5 (Herbicidal rate of 90% or more (almost completely withered))
herbicidal effect on H: barnyard grass (barnyard grass [5]): 3 (Herbicidal rate of 40% or more and less than 70%)
Herbicidal effect on C: oval-leafed pondweed (grade 0-5) (oval-leafed pondweed): 2 (Herbicidal rate of 20% or more and less than 40%)

CCCC(=O)Oc1c(C)nn(C)c(=O)c1-c1c(-c2ccc(C(F)F)cc2)sc2ccc(F)cc12 [2-228]
herbicidal effect on N: redroot pigweed (redroot pigweed): 4 (Herbicidal rate of 70% or more and less than 90%)
herbicidal effect on I: wild oat (criteria 0-5) (wild oat): 0 (Herbicidal rate of 5% or less (almost no effect))
herbicidal effect on J: blackgrass (criteria 0-5) (blackgrass): 3 (Herbicidal rate of 40% or more and less than 70%)
herbicidal effect on R: persian speedwell (persian speedwell [1]): 5 (Herbicidal rate of 90% or more (almost completely withered))
herbicidal effect rating, B: Japanese bulrush (Japanese bulrush): 3 (Herbicidal rate of 40% or more and less than 70%)
herbicidal effect on F: southern crabgrass (criteria 0-5) (southern crabgrass): 4 (Herbicidal rate of 70% or more and less than 90%)
herbicidal effect on P: chickweed (chickweed): 4 (Herbicidal rate of 70% or more and less than 90%)
herbicidal effect on M: velvetleaf (velvetleaf): 3 (Herbicidal rate of 40% or more and less than 70%)
herbicidal effect on E: rice flat sedge (rice flat sedge): 5 (Herbicidal rate of 90% or more (almost completely withered))
Herbicidal effect on A: late watergrass (grade 0-5) (late watergrass): 5 (Herbicidal rate of 90% or more (almost completely withered))
herbicidal effect on G: green foxtail (green foxtail): 4 (Herbicidal rate of 70% or more and less than 90%)
herbicidal effect on H: barnyard grass (barnyard grass [2]): 5 (Herbicidal rate of 90% or more (almost completely withered))
herbicidal effect on H: barnyard grass (criteria 0-5) (barnyard grass [3]): 5 (Herbicidal rate of 90% or more (almost completely withered))
herbicidal effect on R: persian speedwell (criteria 0-5) (persian speedwell [4]): 5 (Herbicidal rate of 90% or more (almost completely withered))
herbicidal effect on H: barnyard grass (barnyard grass [5]): 5 (Herbicidal rate of 90% or more (almost completely withered))
Herbicidal effect on C: oval-leafed pondweed (grade 0-5) (oval-leafed pondweed): 4 (Herbicidal rate of 70% or more and less than 90%)

CCSc1ccc(-c2sc3ccc(F)cc3c2-c2c(O)c(C)nn(C)c2=O)cc1 [2-244]
herbicidal effect on N: redroot pigweed (redroot pigweed): 5 (Herbicidal rate of 90% or more (almost completely withered))
herbicidal effect on I: wild oat (criteria 0-5) (wild oat): 5 (Herbicidal rate of 90% or more (almost completely withered))
herbicidal effect on J: blackgrass (criteria 0-5) (blackgrass): 5 (Herbicidal rate of 90% or more (almost completely withered))
herbicidal effect on R: persian speedwell (persian speedwell [1]): 5 (Herbicidal rate of 90% or more (almost completely withered))
herbicidal effect rating, B: Japanese bulrush (Japanese bulrush): 3 (Herbicidal rate of 40% or more and less than 70%)
herbicidal effect on F: southern crabgrass (criteria 0-5) (southern crabgrass): 5 (Herbicidal rate of 90% or more (almost completely withered))
herbicidal effect on P: chickweed (chickweed): 1 (Herbicidal rate of 5% or more and less than 20%)
herbicidal effect on M: velvetleaf (velvetleaf): 2 (Herbicidal rate of 20% or more and less than 40%)
herbicidal effect on E: rice flat sedge (rice flat sedge): 5 (Herbicidal rate of 90% or more (almost completely withered))
Herbicidal effect on A: late watergrass (grade 0-5) (late watergrass): 3 (Herbicidal rate of 40% or more and less than 70%)
herbicidal effect on G: green foxtail (green foxtail): 5 (Herbicidal rate of 90% or more (almost completely withered))
herbicidal effect on H: barnyard grass (barnyard grass [2]): 5 (Herbicidal rate of 90% or more (almost completely withered))
herbicidal effect on H: barnyard grass (criteria 0-5) (barnyard grass [3]): 5 (Herbicidal rate of 90% or more (almost completely withered))
herbicidal effect on R: persian speedwell (criteria 0-5) (persian speedwell [4]): 5 (Herbicidal rate of 90% or more (almost completely withered))
herbicidal effect on H: barnyard grass (barnyard grass [5]): 4 (Herbicidal rate of 70% or more and less than 90%)
Herbicidal effect on C: oval-leafed pondweed (grade 0-5) (oval-leafed pondweed): 0 (Herbicidal rate of 5% or less (almost no effect))

CCCC(=O)Oc1c(C)nn(C)c(=O)c1-c1c(-c2ccc(SCC)cc2)sc2ccc(F)cc12 [2-245]
herbicidal effect on N: redroot pigweed (redroot pigweed): 5 (Herbicidal rate of 90% or more (almost completely withered))
herbicidal effect on I: wild oat (criteria 0-5) (wild oat): 5 (Herbicidal rate of 90% or more (almost completely withered))
herbicidal effect on J: blackgrass (criteria 0-5) (blackgrass): 4 (Herbicidal rate of 70% or more and less than 90%)
herbicidal effect on R: persian speedwell (persian speedwell [1]): 5 (Herbicidal rate of 90% or more (almost completely withered))
herbicidal effect rating, B: Japanese bulrush (Japanese bulrush): 3 (Herbicidal rate of 40% or more and less than 70%)
herbicidal effect on F: southern crabgrass (criteria 0-5) (southern crabgrass): 5 (Herbicidal rate of 90% or more (almost completely withered))
herbicidal effect on P: chickweed (chickweed): 4 (Herbicidal rate of 70% or more and less than 90%)
herbicidal effect on M: velvetleaf (velvetleaf): 2 (Herbicidal rate of 20% or more and less than 40%)
herbicidal effect on E: rice flat sedge (rice flat sedge): 4 (Herbicidal rate of 70% or more and less than 90%)
Herbicidal effect on A: late watergrass (grade 0-5) (late watergrass): 4 (Herbicidal rate of 70% or more and less than 90%)
herbicidal effect on G: green foxtail (green foxtail): 5 (Herbicidal rate of 90% or more (almost completely withered))
herbicidal effect on H: barnyard grass (barnyard grass [2]): 5 (Herbicidal rate of 90% or more (almost completely withered))
herbicidal effect on H: barnyard grass (criteria 0-5) (barnyard grass [3]): 5 (Herbicidal rate of 90% or more (almost completely withered))
herbicidal effect on R: persian speedwell (criteria 0-5) (persian speedwell [4]): 5 (Herbicidal rate of 90% or more (almost completely withered))
herbicidal effect on H: barnyard grass (barnyard grass [5]): 5 (Herbicidal rate of 90% or more (almost completely withered))
Herbicidal effect on C: oval-leafed pondweed (grade 0-5) (oval-leafed pondweed): 3 (Herbicidal rate of 40% or more and less than 70%)

Cc1nn(C)c(=O)c(-c2c(-c3ccc(SC4CC4)cc3)sc3ccc(F)cc23)c1O [2-254]
herbicidal effect on N: redroot pigweed (redroot pigweed): 5 (Herbicidal rate of 90% or more (almost completely withered))
I: wild oat, herbicidal effect (criteria 0-5) (wild oat; AAH 320 g/ha): 5 (Herbicidal rate of 90% or more (almost completely withered))
J: blackgrass, herbicidal effect (criteria 0-5) (blackgrass; AAH 320 g/ha): 5 (Herbicidal rate of 90% or more (almost completely withered))
herbicidal effect on R: persian speedwell (persian speedwell [1]): 5 (Herbicidal rate of 90% or more (almost completely withered))
herbicidal effect rating, B: Japanese bulrush (Japanese bulrush): 0 (Herbicidal rate of 5% or less (almost no effect))
F: southern crabgrass, herbicidal effect (criteria 0-5) (southern crabgrass; AAH 320 g/ha): 5 (Herbicidal rate of 90% or more (almost completely withered))
herbicidal effect on P: chickweed (chickweed): 4 (Herbicidal rate of 70% or more and less than 90%)
herbicidal effect on M: velvetleaf (velvetleaf): 2 (Herbicidal rate of 20% or more and less than 40%)
herbicidal effect on E: rice flat sedge (rice flat sedge): 5 (Herbicidal rate of 90% or more (almost completely withered))
Herbicidal effect on A: late watergrass (grade 0-5) (late watergrass): 5 (Herbicidal rate of 90% or more (almost completely withered))
herbicidal effect on G: green foxtail (green foxtail): 5 (Herbicidal rate of 90% or more (almost completely withered))
herbicidal effect on H: barnyard grass (barnyard grass [2]): 5 (Herbicidal rate of 90% or more (almost completely withered))
H: barnyard grass, herbicidal effect (criteria 0-5) (barnyard grass [3]; AAH 320 g/ha): 5 (Herbicidal rate of 90% or more (almost completely withered))
R: persian speedwell, herbicidal effect (criteria 0-5) (persian speedwell [4]; AAH 320 g/ha): 5 (Herbicidal rate of 90% or more (almost completely withered))
herbicidal effect on H: barnyard grass (barnyard grass [5]): 5 (Herbicidal rate of 90% or more (almost completely withered))
Herbicidal effect on C: oval-leafed pondweed (grade 0-5) (oval-leafed pondweed): 1 (Herbicidal rate of 5% or more and less than 20%)
